# “And” between values parts separate entries of the source, which are not always exact repeats. Identical values can stand only once.
# Experiments:
# Type in all cases: cell-based
# [1] = system: neutrophils triggered by fMLP; experiment: ROS production by luminol chemiluminescence, neutrophils triggered by fMLP; conditions: fMLP 10^−6 M; DHQ 1, 10 or 100 μM, concentration per sample not given
# Method: Neutrophils (5×10^5) are suspended in 0.5 mL of Hanks balanced salt solution containing 10 μM luminol at 37° C. The cells are then stimulated with 10^−6M fMLF (N-formylmethionyl-leucyl-phenylalanine). Chemiluminescence is recorded with a luminometer (Berthold-Biolumat LB937). Similarly, neutrophils were triggered by fMLP (10^−6 M) in the presence of different concentrations of DHQ (0, 1, 10 and 100 μM) at 37° C. in Hanks buffer containing 10 μM luminol and chemiluminescence was measured by a chemiluminometer. Total chemiluminescence counts during 22.21 min. (integrals) corresponding to total ROS production were determined.
# [2] = system: polymorphonuclear neutrophils; experiment: Oxygen consumption of polymorphonuclear neutrophils triggered by PMA and fMLP; conditions: data not shown
# human mast cells = experiment: Mast cell degranulation (beta-hexosaminidase release) induced by IgE then anti-IgE; conditions: versus kinase inhibitors and chromoglycate (reference molecule)
# From the text: Pure populations of human mast cells (HMC) are obtained by long-term culture of human normal hematopoietic progenitors (CD34^+ cells) in the continuous presence of Stem Cell Factor (SCF). Sources of these CD34^+ cells are mainly bone marrow, cord blood or peripheral blood. Usually, mononuclear cells from bone marrow and cord blood contain 0.5-1% of CD34^+ cells, whereas peripheral blood contains less than 0.1% of CD34^+ cells. Hematopoietic progenitor cells can be rapidly and efficiently enriched to a purity of about 85-98% using positive selection of magnetically labeled CD34^+ cells. Hematopoietic progenitor cells are then magnetically labeled using MACS CD34 MicroBeads. The magnetically labeled cells are enriched on positive selection columns in the magnetic field. Mononuclear cells from peripheral blood (PBMC), cord blood, or bone marrow may otherwise be obtained by density gradient centrifugation over Ficoll Paque®. Fractionation methods for producing mast cells are described in the art (see for instance Arock et al., 2008, Methods in Molecular biology 415: 241-254). Mast cell degranulation was induced by sequential treatment of mast cell by IgE, then by anti-IgE antibodies. Degranulation was subsequently measured by evaluating the release of beta-hexosaminidase, 1 h after IgE stimulation (see FIG. 4).
structure (smiles),measurement,setting,value
O=C1c2c(O)cc(O)cc2OC(c2ccc(O)c(O)c2)C1O (stereo not shown) [DHQ],T.half (fall),[1],3.78 and 3.55
same,T.half (rise),[1],1.55
same,effect on oxygen consumption of polymorphonuclear neutrophils,[2],strongly inhibits
same,inhibitory activity on mast cell degranulation compared with reference molecules,human mast cells,superior to kinase inhibitors and chromoglycate
